Laboratory results reported in ChEMBL document CHEMBL1150723, “Traditional medicinal plants of Thailand, VIII. Isoflavonoids of Dalbergia candenatensis” (1987).
Converted amounts (≈) assume the structure as drawn. The source made the active and inactive calls. The rule behind the calls is not given here.

Legend:
Format in all cases: functional
Candida albicans = experiment: Antifungal activity against Candida albicans ATCC 10259 after 3 days by microdilution assay
Escherichia coli = experiment: Antibacterial activity against Escherichia coli ATCC 25922 after 16 hrs by microdilution assay; settings: ATCC 25922, 16 h
Bacillus subtilis = experiment: Antibacterial activity against Bacillus subtilis ATCC 6633 after 16 hrs by microdilution assay; settings: ATCC 6633, 16 h
Aspergillus niger = experiment: Antifungal activity against Aspergillus niger ATCC 6275 after 3 days by microdilution assay
Penicillium expansum = experiment: Antifungal activity against Penicillium expansum ATCC 7861 after 3 days by microdilution assay
[1] = system: Trichophyton mentagrophytes; experiment: Antifungal activity against Trichophyton mentagrophytes ATCC 9533 after 3 days by microdilution assay
P388 = experiment: Cytotoxicity against mouse P388 cells
Staphylococcus aureus = experiment: Antibacterial activity against Staphylococcus aureus ATCC 25923 after 16 hrs by microdilution assay; settings: ATCC 25923, 16 h

**Q.** Which MIC (Candida albicans; ATCC 10259, 72 h) does the source give for `COC1=CC(=O)C([C@@H]2COc3cc(O)ccc3C2)=CC1=O` here?
**A.** 50 µg/mL (≈ 175 µM)

**Q.** And the MIC (Escherichia coli)?
**A.** 6 µg/mL (≈ 21 µM)

**Q.** And the MIC (Bacillus subtilis)?
**A.** 3 µg/mL (≈ 10.5 µM)

**Q.** What about the MIC (Aspergillus niger; ATCC 6275, 72 h) of the same compound?
**A.** 100 µg/mL (≈ 349 µM)

**Q.** And the MIC (Penicillium expansum; ATCC 7861, 72 h)?
**A.** > 100 µg/mL

**Q.** And the MIC ([1]; ATCC 9533, 72 h)?
**A.** 25 µg/mL (≈ 87.3 µM)

**Q.** What about the EC50 (P388; read-out: ED50 (the source's name)) of the same compound?
**A.** 0.5 µg/mL (≈ 1.75 µM)

**Q.** What about the MIC (Staphylococcus aureus) of the same compound?
**A.** 6 µg/mL (≈ 21 µM)

**Q.** What does the source list for `COc1ccc(-c2coc3cc(O)ccc3c2=O)cc1` [FORMONONETIN]?
**A.** MIC (Candida albicans; ATCC 10259, 72 h): > 100 µg/mL; MIC (Escherichia coli): 100 µg/mL (≈ 373 µM); MIC (Bacillus subtilis): > 100 µg/mL; MIC (Aspergillus niger; ATCC 6275, 72 h): 100 µg/mL (≈ 373 µM); MIC (Penicillium expansum; ATCC 7861, 72 h): 50 µg/mL (≈ 186 µM); MIC ([1]; ATCC 9533, 72 h): > 100 µg/mL; MIC (Staphylococcus aureus): > 100 µg/mL

**Q.** `COc1ccc(C2COc3cc(O)ccc3C2)c(OC)c1O` (racemic) [MUCRONULATOL(+/-)] was tested. Which MIC (Candida albicans; ATCC 10259, 72 h) did it give?
**A.** > 100 µg/mL

**Q.** What about the MIC (Escherichia coli) of the same compound?
**A.** 50 µg/mL (≈ 165 µM)

**Q.** What about the MIC (Bacillus subtilis) of the same compound?
**A.** > 100 µg/mL

**Q.** What about the MIC (Aspergillus niger; ATCC 6275, 72 h) of the same compound?
**A.** > 100 µg/mL

**Q.** And the MIC (Penicillium expansum; ATCC 7861, 72 h)?
**A.** > 100 µg/mL

**Q.** What about the MIC ([1]; ATCC 9533, 72 h) of the same compound?
**A.** 25 µg/mL (≈ 82.7 µM)

**Q.** And the MIC (Staphylococcus aureus)?
**A.** > 100 µg/mL

**Q.** With `COC1=CC(=O)C(c2coc3cc(O)cc(O)c3c2=O)=CC1=O` as the compound, how does the MIC (Candida albicans; ATCC 10259, 72 h) read?
**A.** > 100 µg/mL

**Q.** What about the MIC (Escherichia coli) of the same compound?
**A.** 50 µg/mL (≈ 159 µM)

**Q.** What about the MIC (Bacillus subtilis) of the same compound?
**A.** 100 µg/mL (≈ 318 µM)

**Q.** What about the MIC (Aspergillus niger; ATCC 6275, 72 h) of the same compound?
**A.** > 100 µg/mL

**Q.** What about the MIC (Penicillium expansum; ATCC 7861, 72 h) of the same compound?
**A.** > 100 µg/mL

**Q.** And the MIC ([1]; ATCC 9533, 72 h)?
**A.** 100 µg/mL (≈ 318 µM)

**Q.** And the ED50 (P388)?
**A.** inactive

**Q.** What about the MIC (Staphylococcus aureus) of the same compound?
**A.** > 100 µg/mL

**Q.** What does the source list for `COc1ccc([C@@H]2COc3cc(O)ccc3C2)c(O)c1`?
**A.** MIC (Candida albicans; ATCC 10259, 72 h): > 100 µg/mL; MIC (Escherichia coli): 50 µg/mL (≈ 184 µM); MIC (Bacillus subtilis): 50 µg/mL (≈ 184 µM); MIC (Aspergillus niger; ATCC 6275, 72 h): > 100 µg/mL; MIC (Penicillium expansum; ATCC 7861, 72 h): > 100 µg/mL; MIC ([1]; ATCC 9533, 72 h): 25 µg/mL (≈ 91.8 µM); MIC (Staphylococcus aureus): > 100 µg/mL

**Q.** Which results are given for `CN(C)[C@@H]1C(O)=C(C(N)=O)C(=O)[C@@]2(O)C(O)=C3C(=O)c4c(O)cccc4[C@@](C)(O)[C@H]3C[C@@H]12` [TETRACYCLINE]?
**A.** MIC (Escherichia coli): 1.2 µg/mL (≈ 2.7 µM); MIC (Bacillus subtilis): 2.5 µg/mL (≈ 5.63 µM); MIC (Staphylococcus aureus): 0.6 µg/mL (≈ 1.35 µM)

**Q.** Which results are given for NYSTATIN?
**A.** MIC (Candida albicans): 1.5 µg/mL; MIC (Aspergillus niger): 6 µg/mL; MIC (Penicillium expansum): 6 µg/mL; MIC [1]: 3 µg/mL
